In patent US20260078130A1, “NAMPT MODULATORS, PREPARATIONS, AND USES THEREOF” (SIRONAX LTD., priority 2022, published 2026):
Where two headings read alike, the source gives them in different places.

Molecular target: T1, human enzyme NAMPT (full length) (Homo sapiens, UniProt P43490)
T1 construct: human enzyme NAMPT (full length)
Test: NMN fluorescence biochemical assay (stimulation of NMN synthesis by NAMPT)
Settings: for EC50: concentration giving half-maximal activation, read-out: Enzymatic EC50; for Enzymatic Emax: fold change of maximal activation compared to DMSO
Protocol: Certain compounds described herein were assayed for their ability to stimulate the synthesis of nicotinamide mononucleotide (NMN) by human enzyme NAMPT (full length). The enzymatic assay was performed in a 384-well plate using a TMD buffer (50 mM Tris-HCl, 10 mM MgCl2, 2 mM DTT, pH 7.5). Purified NAMPT (100 nM) was pre-incubated with 0.2 μL. DMSO solution of the test compound (with a series of concentrations) in 10 μL TMD buffer for 15 min at 37° C. The reaction was initiated by adding 10 μL solution of NAM (50 μM), PRPP (100 μM), and ATP (4 mM) in TMD buffer. After 1 h of incubation at 37 T, an aliquot (20 μL) of the NMN-containing sample was sequentially mixed with 5 μL of 20% acetophenone (in DMSO) and 5 μL of 2M KOH. The mixture was placed on ice for 10 min. Next, 22.5 μL of 100% formic acid was added to each sample, vortexed, and then incubated at 37° C. for 20 min. Fluorescence (Ex/Em=382/445 nm) was measured using an Envision plate reader. The potency measurements for the test compounds were quantified and represented as EC50 (concentration of a compound that gives half-maximal activation) and Emax (fold change of a compound's maximal activation compared to DMSO).

[1] = NMN synthesis by purified human NAMPT (100 nM)
[2] = NMN fluorescence assay, purified human NAMPT 100 nM

T1 sequence (P43490 whole entry): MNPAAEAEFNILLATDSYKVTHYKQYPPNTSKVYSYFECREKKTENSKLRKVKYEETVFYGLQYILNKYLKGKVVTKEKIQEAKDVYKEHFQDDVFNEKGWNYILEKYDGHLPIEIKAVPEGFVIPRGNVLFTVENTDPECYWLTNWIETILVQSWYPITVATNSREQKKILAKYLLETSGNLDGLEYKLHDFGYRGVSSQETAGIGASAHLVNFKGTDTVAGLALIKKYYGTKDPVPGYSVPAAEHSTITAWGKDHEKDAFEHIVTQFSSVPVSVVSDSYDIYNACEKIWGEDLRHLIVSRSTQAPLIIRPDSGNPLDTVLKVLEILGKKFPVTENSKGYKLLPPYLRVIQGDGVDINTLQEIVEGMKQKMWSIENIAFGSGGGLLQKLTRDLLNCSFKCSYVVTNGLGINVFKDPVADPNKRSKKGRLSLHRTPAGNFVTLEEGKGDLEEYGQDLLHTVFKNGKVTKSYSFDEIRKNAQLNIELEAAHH

Compound: NC(=O)c1cnc(CN2C(=O)c3ccccc3C2Cc2ncccc2Br)s1 (centres unmarked) [Compound 280, 2-((1-((3-bromopyridin-2-yl)methyl)-3-oxoisoindolin-2-yl)methyl)thiazole-5-carboxamide]
- EC50 [1]: ≥ 5 µM
- Enzymatic Emax: B (3≥B>2)

Compound: O=C1c2ccccc2C(Cc2ncccc2Br)N1Cc1ccn2c(=O)[nH]nc2c1 (centres unmarked) [Compound 281, 7-((1-((3-bromopyridin-2-yl)methyl)-3-oxoisoindolin-2-yl)methyl)-[1,2,4]triazolo[4,3-a]pyridin-3(2H)-one]
- EC50 [1]: ≥ 5 µM
- Enzymatic Emax: C (2≥C)

Compound: N#Cc1nccc(Cl)c1CC1c2cc(C3COC3)ccc2C(=O)N1Cc1ccc2[nH]c(=O)oc2c1 (centres unmarked) [Compound 285, 4-chloro-3-((6-(oxetan-3-yl)-3-oxo-2-((2-oxo-2,3-dihydrobenzo[d]oxazol-6-yl)methyl)isoindolin-1-yl)methyl)picolinonitrile]
- EC50 [1]: < 0.5 µM
- Enzymatic Emax: B (3≥B>2)

Compound: N#Cc1nccc(Cl)c1CC1c2cccc(F)c2C(=O)N1Cc1ccc2[nH]c(=O)oc2c1 (centres unmarked) [Compound 286, 4-chloro-3-((4-fluoro-3-oxo-2-((2-oxo-2,3-dihydrobenzo[d]oxazol-6-yl)methyl)isoindolin-1-yl)methyl)picolinonitrile]
- EC50 [1]: < 0.5 µM
- Enzymatic Emax: B (3≥B>2)

Compound: O=C1c2ccccc2C(Cc2ncccc2Br)N1Cc1ccc2[nH]c(=S)oc2c1 (centres unmarked) [Compound 287, 3-((3-bromopyridin-2-yl)methyl)-2-((2-thioxo-2,3-dihydrobenzo[d]oxazol-6-yl)methyl) isoindolin-1-one]
- EC50 [1]: 0.5 to 5 µM
- Enzymatic Emax: B (3≥B>2)

Compound: O=C1c2ccccc2C(Cc2ncccc2Br)N1Cc1ccc2c(c1)nnn2O (centres unmarked) [Compound 288, 3-((3-bromopyridin-2-yl)methyl)-2-((1-hydroxy-1H-benzo[d][1,2,3]triazol-5-yl)methyl) isoindolin-1-one]
- EC50 [1]: ≥ 5 µM
- Enzymatic Emax: C (2≥C)

Compound: CC1c2ccccc2C(=O)N1Cc1cc(F)c2[nH]nnc2c1 (centres unmarked) [Compound 290, 2-((7-fluoro-1H-benzo[d][1,2,3]triazol-5-yl)methyl)-3-methylisoindolin-1-one]
- EC50 [1]: ≥ 5 µM
- Enzymatic Emax: C (2≥C)

Compound: CN(C)c1ccc2c(c1)C(=O)N(Cc1ccc(O)cc1)C2 [Compound 305, 6-(dimethylamino)-2-(4-hydroxybenzyl) isoindolin-1-one]
- EC50 [1]: ≥ 5 µM
- Enzymatic Emax: C (2≥C)

Compound: O=C1c2ccccc2C(C(F)(F)c2ccccc2)N1Cc1ccc2[nH]c(=O)oc2c1 (centres unmarked) [Compound 306, 6-((1-(difluoro(phenyl)methyl)-3-oxoisoindolin-2-yl)methyl)benzo[d]oxazol-2(3H)-one]
- EC50 [1]: ≥ 5 µM
- Enzymatic Emax: C (2≥C)

Compound: Cn1ncc(Cl)c1C[C@@H]1c2ccccc2C(=O)N1C/C=C/c1c[nH]nn1 [Compound 313, (R,E)-2-(3-(1H-1,2,3-triazol-4-yl)allyl)-3-((4-chloro-1-methyl-1H-pyrazol-5-yl)methyl)isoindolin-1-one]
- EC50 [1]: ≥ 5 µM
- Enzymatic Emax: C (2≥C)

Compound: O=C1c2ccccc2C(Cc2ncccc2Br)N1CC1CC2(CC(O)C2)C1 (centres unmarked) [Compound 321, 3-((3-bromopyridin-2-yl)methyl)-2-((6-hydroxyspiro[3.3]heptan-2-yl)methyl) isoindolin-1-one]
- EC50 [2]: 0.5 to 5 µM
- Enzymatic Emax: B (3≥B>2)

Compound: O=C1c2ccccc2C(Cc2ncccc2Br)N1Cc1ccn2c(CO)nnc2c1 (centres unmarked) [Compound 323, 3-((3-bromopyridin-2-yl)methyl)-2-((3-(hydroxymethyl)-[1,2,4]triazolo[4,3-a]pyridin-7-yl)methyl)isoindolin-1-one]
- EC50 [2]: ≥ 5 µM
- Enzymatic Emax: B (3≥B>2)

Compound: Cc1cc2[nH]c(=O)oc2cc1CN1C(=O)c2ccccc2C1Cc1ncccc1Br (centres unmarked) [Compound 333, 6-((1-((3-bromopyridin-2-yl)methyl)-3-oxoisoindolin-2-yl)methyl)-5-methylbenzo[d]oxazol-2(3H)-one]
- EC50 [2]: 0.5 to 5 µM
- Enzymatic Emax: B (3≥B>2)
